# Laboratory results reported in the supplement of paper PMC10307832.
# Legend:
# Experiment in all cases: relative viability (nuclei count vs DMSO), 5 days (fraction); higher = more cells survive
# PAC-1 + Olaparib = compound: C=CCc1cccc(/C=N/NC(=O)CN2CCN(Cc3ccccc3)CC2)c1O [PAC-1] + O=C(c1cc(Cc2n[nH]c(=O)c3ccccc23)ccc1F)N1CCN(C(=O)C2CC2)CC1 [Olaparib] (partner 8 µM)
# Outline: (§1)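 Five library-drug doses in √10 steps were combined with a fixed anchor-drug dose, or a single drug was given alone, by pin tool to lung cancer cell lines in 1536-well plates the day after seeding. Nuclei were stained and counted after 5 days. Relative viability is the nuclei count in treated wells over that in vehicle wells, taken as the median of duplicate plates.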
# Ibrutinib + Palbociclib = compound: C=CC(=O)N1CCC[C@@H](n2nc(-c3ccc(Oc4ccccc4)cc3)c3c(N)ncnc32)C1 [Ibrutinib] + CC(=O)c1c(C)c2cnc(Nc3ccc(N4CCNCC4)cn3)nc2n(C2CCCC2)c1=O [Palbociclib] (partner 0.5 µM)
# Outline: as §1
# PAC-1 + Trametinib = compound: C=CCc1cccc(/C=N/NC(=O)CN2CCN(Cc3ccccc3)CC2)c1O [PAC-1] + CC(=O)Nc1cccc(-n2c(=O)n(C3CC3)c(=O)c3c(Nc4ccc(I)cc4F)n(C)c(=O)c(C)c32)c1 [Trametinib] (partner 0.02 µM)
# Outline: as §1
# BMX-IN-1 + Foretinib = compound: C=CC(=O)Nc1cc(-n2c(=O)ccc3cnc4ccc(-c5ccc(NS(C)(=O)=O)cc5)cc4c32)ccc1C [BMX-IN-1] + COc1cc2c(Oc3ccc(NC(=O)C4(C(=O)Nc5ccc(F)cc5)CC4)cc3F)ccnc2cc1OCCCN1CCOCC1 [Foretinib] (partner 0.25 µM)
# Outline: as §1
Cell Line,relative viability (PAC-1 + Olaparib; first compound 0.02 µM),relative viability (PAC-1 + Olaparib; first compound 0.06325 µM),relative viability (PAC-1 + Olaparib; first compound 0.2 µM),relative viability (PAC-1 + Olaparib; first compound 2 µM),relative viability (Ibrutinib + Palbociclib; first compound 0.005 µM),relative viability (Ibrutinib + Palbociclib; first compound 0.01581 µM),relative viability (Ibrutinib + Palbociclib; first compound 0.05 µM),relative viability (Ibrutinib + Palbociclib; first compound 0.1581 µM),relative viability (Ibrutinib + Palbociclib; first compound 0.5 µM),relative viability (PAC-1 + Trametinib; first compound 0.02 µM),relative viability (PAC-1 + Trametinib; first compound 0.06325 µM),relative viability (PAC-1 + Trametinib; first compound 0.2 µM),relative viability (PAC-1 + Trametinib; first compound 2 µM),relative viability (BMX-IN-1 + Foretinib; first compound 0.02 µM),relative viability (BMX-IN-1 + Foretinib; first compound 0.2 µM),relative viability (BMX-IN-1 + Foretinib; first compound 0.6325 µM),relative viability (BMX-IN-1 + Foretinib; first compound 2 µM)
HCC-78,0.8,0.893,0.874,0.827,0.481,0.472,0.507,0.42,0.414,0.725,0.725,0.849,0.782,0.626,0.544,0.587,0.545
HCC-366,0.314,0.411,0.306,0.378,0.439,0.405,0.38,0.385,0.428,0.339,0.318,0.312,0.365,1.03,0.962,1.01,0.886
HCC-827,0.65,0.696,0.6,0.646,0.471,0.438,0.453,0.475,0.17,0.505,0.569,0.528,0.536,1.01,1.02,1.03,1.03
HOP-62,0.408,0.273,0.438,0.502,0.542,0.442,0.42,0.459,0.516,0.387,0.404,0.388,0.406,1.26,1.27,1.09,1.1
IA-LM,0.806,0.964,0.952,0.833,,,,,,,,,,1.53,1.31,1.15,1.21
LC-2-ad,0.704,0.712,0.35,0.635,0.588,0.513,0.505,0.542,0.505,0.933,0.919,0.897,0.954,0.878,0.926,0.975,0.946
LCLC-97TM1,0.364,0.524,,0.338,0.222,0.226,0.284,0.241,0.161,0.179,0.196,,0.221,1.01,0.917,1.03,1.1
LCLC-103H,0.771,0.824,0.761,0.745,0.498,0.506,0.528,0.481,0.469,0.636,0.697,0.708,0.714,0.879,0.78,0.882,0.735
LK-2,0.774,0.704,0.673,0.837,0.469,0.662,0.586,0.542,0.579,0.758,0.629,0.785,0.791,1.59,1.54,1.04,1.03
LOU-NH91,0.884,0.908,0.92,0.879,0.563,0.499,0.567,0.56,0.513,0.776,0.776,0.782,0.817,0.938,,1.01,0.942
LU99A,0.247,0.282,0.271,0.257,0.339,0.391,0.41,0.443,0.391,0.542,0.475,0.539,0.564,0.828,0.776,0.842,0.817
LXF-289,1.07,1.03,1.05,1.03,0.607,0.598,0.582,0.556,0.606,0.7,0.718,0.705,0.675,1.08,1.03,1.06,1
NCI-H522,0.591,0.643,0.619,0.626,0.865,1.05,0.861,1.01,0.664,0.675,0.915,0.848,0.77,,,,
NCI-H596,0.633,0.715,0.607,0.665,,,,,,0.704,0.802,0.801,0.87,0.953,1.25,0.872,0.714
NCI-H1299,0.947,0.933,0.937,0.895,,,,,,,,,,1.12,1.06,1.16,1.06
NCI-H1563,,,,,,,,,,,,,,0.922,0.956,0.914,0.906
NCI-H1623,,,,,,,,,,,,,,0.853,1.02,0.798,0.788
NCI-H1648,0.573,0.646,0.889,0.832,0.279,0.27,0.259,0.297,0.252,0.388,0.525,0.445,0.504,,,,
NCI-H1703,0.376,0.401,0.388,0.341,,,,,,,,,,0.358,0.351,0.298,0.322
NCI-H1792,0.305,0.383,0.0039,0.454,,0.593,0.757,,0.683,0.475,0.402,0.392,0.468,,,,
